# pIC50: −log10 of the molar value. Read-outs that look alike come from different tables or passages of the source. Positions of bridges follow the written chain, without caps; N, C: chain ends. Residues, ends and D or L forms follow the SMILES beside them.
# Target: hNav1.7 (Homo sapiens, UniProt Q15858)
# Experiment: cell-based
# Type: cell-based
# Conditions: read-out: IWQ Use Nav1.7
# [1] = IonWorks Quattro, clamped to −110 mV, depolarized to −10 mV, 5 min after compound, n=2
# hNav1.7, sequence (Q15858 whole entry, looked up): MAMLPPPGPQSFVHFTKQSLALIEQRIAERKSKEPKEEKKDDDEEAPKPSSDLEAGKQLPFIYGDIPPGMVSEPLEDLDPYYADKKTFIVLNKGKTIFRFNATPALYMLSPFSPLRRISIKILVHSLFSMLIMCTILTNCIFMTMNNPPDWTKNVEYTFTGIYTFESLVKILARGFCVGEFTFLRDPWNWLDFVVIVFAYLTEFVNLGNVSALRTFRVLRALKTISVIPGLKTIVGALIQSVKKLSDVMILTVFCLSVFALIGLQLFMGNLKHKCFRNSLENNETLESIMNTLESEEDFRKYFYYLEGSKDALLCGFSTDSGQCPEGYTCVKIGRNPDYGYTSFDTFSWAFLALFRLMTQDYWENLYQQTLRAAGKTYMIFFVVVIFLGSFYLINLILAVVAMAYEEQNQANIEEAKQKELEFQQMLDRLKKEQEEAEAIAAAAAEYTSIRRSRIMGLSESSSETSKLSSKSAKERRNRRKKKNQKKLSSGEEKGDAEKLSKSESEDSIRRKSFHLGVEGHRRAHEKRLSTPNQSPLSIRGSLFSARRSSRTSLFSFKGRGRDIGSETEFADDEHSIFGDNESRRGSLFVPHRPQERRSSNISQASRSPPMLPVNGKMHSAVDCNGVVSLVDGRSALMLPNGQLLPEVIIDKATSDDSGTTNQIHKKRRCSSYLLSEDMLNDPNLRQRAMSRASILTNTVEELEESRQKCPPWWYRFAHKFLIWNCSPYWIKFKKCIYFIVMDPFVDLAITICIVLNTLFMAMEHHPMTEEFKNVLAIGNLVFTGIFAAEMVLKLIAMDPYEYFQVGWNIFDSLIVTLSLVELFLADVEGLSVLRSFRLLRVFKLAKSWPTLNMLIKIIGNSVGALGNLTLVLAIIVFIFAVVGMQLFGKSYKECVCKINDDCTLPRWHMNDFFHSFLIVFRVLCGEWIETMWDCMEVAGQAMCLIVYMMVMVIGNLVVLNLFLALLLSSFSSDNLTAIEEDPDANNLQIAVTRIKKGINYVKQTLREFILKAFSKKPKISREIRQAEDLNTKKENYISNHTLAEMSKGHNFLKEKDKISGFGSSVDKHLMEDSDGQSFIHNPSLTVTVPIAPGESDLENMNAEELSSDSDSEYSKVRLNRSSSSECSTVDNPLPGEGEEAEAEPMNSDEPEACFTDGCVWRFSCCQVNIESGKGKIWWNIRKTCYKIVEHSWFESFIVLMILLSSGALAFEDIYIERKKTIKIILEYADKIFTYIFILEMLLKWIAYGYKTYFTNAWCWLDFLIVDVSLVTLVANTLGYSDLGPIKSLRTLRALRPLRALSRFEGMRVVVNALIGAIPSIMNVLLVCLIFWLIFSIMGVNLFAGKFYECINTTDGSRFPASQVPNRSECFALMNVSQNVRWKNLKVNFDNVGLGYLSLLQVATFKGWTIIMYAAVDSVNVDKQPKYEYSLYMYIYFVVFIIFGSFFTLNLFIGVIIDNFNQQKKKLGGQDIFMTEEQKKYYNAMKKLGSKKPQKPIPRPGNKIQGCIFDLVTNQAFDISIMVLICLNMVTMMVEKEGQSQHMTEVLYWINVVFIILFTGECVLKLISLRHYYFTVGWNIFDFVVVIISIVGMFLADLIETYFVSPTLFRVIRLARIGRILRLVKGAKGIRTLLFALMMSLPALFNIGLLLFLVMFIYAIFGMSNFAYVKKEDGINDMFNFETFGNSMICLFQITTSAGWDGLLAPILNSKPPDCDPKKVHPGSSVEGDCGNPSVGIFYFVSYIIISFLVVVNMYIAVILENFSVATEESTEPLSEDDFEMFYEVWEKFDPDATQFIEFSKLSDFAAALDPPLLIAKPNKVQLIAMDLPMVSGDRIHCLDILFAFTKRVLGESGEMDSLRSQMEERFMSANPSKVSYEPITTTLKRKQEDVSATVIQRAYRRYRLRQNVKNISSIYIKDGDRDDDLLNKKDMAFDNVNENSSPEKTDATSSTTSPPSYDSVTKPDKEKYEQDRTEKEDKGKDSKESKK
compound,measurement,setting,value
"CC[C@H](C)[C@@H]1NC(=O)[C@@H]2CSSC[C@@H]3NC(=O)[C@H](C(C)C)NC(=O)[C@H](CC(C)C)NC(=O)[C@H](CC(N)=O)NC(=O)[C@@H]4CCCN4C(=O)[C@H](CCCNC(=N)N)NC(=O)[C@H](CSSC[C@H](NC(=O)[C@@H](N)CCCNC(=N)N)C(=O)N[C@@H](CC(C)C)C(=O)NCC(=O)N[C@@H](Cc4ccccc4)C(=O)N[C@@H](CCSC)C(=O)N[C@@H](CCCNC(=N)N)C(=O)N[C@@H](CCCCN)C(=O)N2)NC(=O)[C@H](CSSC[C@@H](C(=O)N[C@@H](CCCCN)C(=O)N[C@@H](Cc2ccc(O)cc2)C(=O)N[C@H](C(=O)N[C@@H](Cc2ccccc2)C(N)=O)C(C)C)NC(=O)[C@H](Cc2c[nH]c4ccccc24)NC(=O)[C@H](CCCCN)NC(=O)[C@H](Cc2c[nH]cn2)NC(=O)[C@H]([C@@H](C)O)NC(=O)[C@H](CCCNC(=N)N)NC(=O)[C@H](CO)NC3=O)NC(=O)[C@H](CCCCN)NC(=O)[C@H](CC(=O)O)NC(=O)[C@H](CC(N)=O)NC(=O)[C@H](CC(=O)O)NC(=O)[C@@H]2CCCN2C1=O [SEQ ID NO: 62] (H-RCLGFMRKCIPDNDKCCRPNLVCSRTHKWCKYVF-NH2; disulfide 2-17, 9-23, 16-30)",pIC50,,6.96
"CSCC[C@@H]1NC(=O)[C@H](Cc2ccccc2)NC(=O)CNC(=O)[C@H](CC(C)C)NC(=O)[C@@H](NC(=O)[C@@H](N)CC(=O)O)CSSC[C@@H]2NC(=O)[C@@H]3CSSC[C@@H](C(=O)N[C@@H](CCCCN)C(=O)N[C@@H](Cc4ccc(O)cc4)C(=O)N[C@H](C(=O)N[C@@H](Cc4ccccc4)C(N)=O)C(C)C)NC(=O)[C@H](Cc4c[nH]c5ccccc45)NC(=O)[C@H](CCCCN)NC(=O)[C@H](Cc4c[nH]cn4)NC(=O)[C@H]([C@@H](C)O)NC(=O)[C@H](CCCNC(=N)N)NC(=O)[C@H](CO)NC(=O)[C@H](CSSC[C@H](NC(=O)[C@H](CCCCN)NC(=O)[C@H](CCCNC(=N)N)NC1=O)C(=O)N[C@@H](CC(=O)O)C(=O)N1CCC[C@H]1C(=O)N[C@@H](CC(=O)O)C(=O)N[C@@H](CC(N)=O)C(=O)N[C@@H](CC(=O)O)C(=O)N[C@@H](CCCCN)C(=O)N3)NC(=O)[C@H](C(C)C)NC(=O)[C@H](CC(C)C)NC(=O)[C@H](CC(N)=O)NC(=O)[C@@H]1CCCN1C(=O)[C@H](CCCNC(=N)N)NC2=O [SEQ ID NO: 119, [Asp10]GpTx-1] (H-DCLGFMRKCDPDNDKCCRPNLVCSRTHKWCKYVF-NH2; disulfide 2-17, 9-23, 16-30)",pIC50,,6.66
"CC[C@H](C)[C@@H]1NC(=O)[C@@H]2CSSC[C@@H]3NC(=O)[C@H](C(C)C)NC(=O)[C@H](CC(C)C)NC(=O)[C@H](CC(N)=O)NC(=O)[C@@H]4CCCN4C(=O)[C@H](CCCNC(=N)N)NC(=O)[C@H](CSSC[C@H](NC(=O)[C@@H](N)CC(=O)O)C(=O)N[C@@H](CC(C)C)C(=O)N[C@@H](C)C(=O)N[C@@H](Cc4ccccc4)C(=O)N[C@@H](CCSC)C(=O)N[C@@H](CCCNC(=N)N)C(=O)N[C@@H](CCCCN)C(=O)N2)NC(=O)[C@H](CSSC[C@@H](C(=O)N[C@@H](CCCCN)C(=O)N[C@@H](Cc2ccc(O)cc2)C(=O)N[C@H](C(=O)N[C@@H](Cc2ccccc2)C(N)=O)C(C)C)NC(=O)[C@H](Cc2c[nH]c4ccccc24)NC(=O)[C@H](CCCCN)NC(=O)[C@H](Cc2c[nH]cn2)NC(=O)[C@H]([C@@H](C)O)NC(=O)[C@H](CCCNC(=N)N)NC(=O)[C@H](CO)NC3=O)NC(=O)[C@H](CCCCN)NC(=O)[C@H](CC(=O)O)NC(=O)[C@H](CC(N)=O)NC(=O)[C@H](CC(=O)O)NC(=O)[C@@H]2CCCN2C1=O [SEQ ID NO: 141] (H-DCLAFMRKCIPDNDKCCRPNLVCSRTHKWCKYVF-NH2; disulfide 2-17, 9-23, 16-30)",pIC50,[1],6.57
"CC[C@H](C)[C@@H]1NC(=O)[C@@H]2CSSC[C@@H]3NC(=O)[C@H](C(C)C)NC(=O)[C@H](CC(C)C)NC(=O)[C@H](CC(N)=O)NC(=O)[C@@H]4CCCN4C(=O)[C@H](CCCNC(=N)N)NC(=O)[C@H](CSSC[C@H](NC(=O)[C@@H](N)CC(=O)O)C(=O)N[C@@H](CC(C)C)C(=O)NCC(=O)N[C@@H](Cc4ccccc4)C(=O)N[C@@H](CCC(=O)O)C(=O)N[C@@H](CCCNC(=N)N)C(=O)N[C@@H](CCCCN)C(=O)N2)NC(=O)[C@H](CSSC[C@@H](C(=O)N[C@@H](CCCCN)C(=O)N[C@@H](Cc2ccc(O)cc2)C(=O)N[C@H](C(=O)N[C@@H](Cc2ccccc2)C(N)=O)C(C)C)NC(=O)[C@H](Cc2c[nH]c4ccccc24)NC(=O)[C@H](CCCCN)NC(=O)[C@H](Cc2c[nH]cn2)NC(=O)[C@H]([C@@H](C)O)NC(=O)[C@H](CCCNC(=N)N)NC(=O)[C@H](CO)NC3=O)NC(=O)[C@H](CCCCN)NC(=O)[C@H](CC(=O)O)NC(=O)[C@H](CC(N)=O)NC(=O)[C@H](CC(=O)O)NC(=O)[C@@H]2CCCN2C1=O [SEQ ID NO: 144] (H-DCLGFERKCIPDNDKCCRPNLVCSRTHKWCKYVF-NH2; disulfide 2-17, 9-23, 16-30)",pIC50,[1],5.45
"CSCC[C@@H]1NC(=O)[C@H](Cc2ccccc2)NC(=O)CNC(=O)[C@H](CC(C)C)NC(=O)[C@@H](NC(=O)[C@@H](N)CC(=O)O)CSSC[C@@H]2NC(=O)[C@@H]3CSSC[C@@H](C(=O)N[C@@H](CCCCN)C(=O)N[C@@H](Cc4ccc(O)cc4)C(=O)N[C@H](C(=O)N[C@@H](Cc4ccccc4)C(N)=O)C(C)C)NC(=O)[C@H](Cc4c[nH]c5ccccc45)NC(=O)[C@H](CCCCN)NC(=O)[C@H](Cc4c[nH]cn4)NC(=O)[C@H]([C@@H](C)O)NC(=O)[C@H](CCCNC(=N)N)NC(=O)[C@H](CO)NC(=O)[C@H](CSSC[C@H](NC(=O)[C@H](CCCCN)NC(=O)[C@H](CCCNC(=N)N)NC1=O)C(=O)N[C@@H](CCC(=O)O)C(=O)N1CCC[C@H]1C(=O)N[C@@H](CC(=O)O)C(=O)N[C@@H](CC(N)=O)C(=O)N[C@@H](CC(=O)O)C(=O)N[C@@H](CCCCN)C(=O)N3)NC(=O)[C@H](C(C)C)NC(=O)[C@H](CC(C)C)NC(=O)[C@H](CC(N)=O)NC(=O)[C@@H]1CCCN1C(=O)[C@H](CCCNC(=N)N)NC2=O [SEQ ID NO: 146, [Glu10]GpTx-1] (H-DCLGFMRKCEPDNDKCCRPNLVCSRTHKWCKYVF-NH2; disulfide 2-17, 9-23, 16-30)",pIC50,"IonWorks Quattro, Use",7.05
"CC[C@H](C)[C@@H]1NC(=O)[C@@H]2CSSC[C@@H]3NC(=O)[C@H](C(C)C)NC(=O)[C@H](CC(C)C)NC(=O)[C@H](CC(N)=O)NC(=O)[C@@H]4CCCN4C(=O)[C@H](CCCNC(=N)N)NC(=O)[C@H](CSSC[C@H](NC(=O)[C@@H](N)CC(=O)O)C(=O)N[C@@H](CC(C)C)C(=O)NCC(=O)N[C@@H](Cc4ccccc4)C(=O)N[C@@H](CCSC)C(=O)N[C@@H](CCCNC(=N)N)C(=O)N[C@@H](CCCCN)C(=O)N2)NC(=O)[C@H](CSSC[C@@H](C(=O)N[C@@H](CCCCN)C(=O)N[C@@H](Cc2ccc(O)cc2)C(=O)N[C@H](C(=O)N[C@@H](Cc2ccccc2)C(N)=O)C(C)C)NC(=O)[C@H](Cc2c[nH]c4ccccc24)NC(=O)[C@H](CCCCN)NC(=O)[C@H](Cc2c[nH]cn2)NC(=O)[C@H]([C@@H](C)O)NC(=O)[C@H](CCCNC(=N)N)NC(=O)[C@H](CO)NC3=O)NC(=O)[C@H](CCCCN)NC(=O)[C@H](CC(=O)O)NC(=O)[C@H](CC(N)=O)NC(=O)[C@H](CC(=O)O)NC(=O)[C@H](CCC(=O)O)NC1=O [SEQ ID NO: 147, [Glu11]GpTx-1] (H-DCLGFMRKCIEDNDKCCRPNLVCSRTHKWCKYVF-NH2; disulfide 2-17, 9-23, 16-30)",pIC50,"IonWorks Quattro, Use",6.66
"CC[C@H](C)[C@@H]1NC(=O)[C@@H]2CSSC[C@@H]3NC(=O)[C@H](C(C)C)NC(=O)[C@H](CC(C)C)NC(=O)[C@H](CC(N)=O)NC(=O)[C@@H]4CCCN4C(=O)[C@H](CCCNC(=N)N)NC(=O)[C@H](CSSC[C@H](NC(=O)[C@@H](N)CC(=O)O)C(=O)N[C@@H](CC(C)C)C(=O)NCC(=O)N[C@@H](Cc4ccccc4)C(=O)N[C@@H](CCSC)C(=O)N[C@@H](CCCNC(=N)N)C(=O)N[C@@H](CCCCN)C(=O)N2)NC(=O)[C@H](CSSC[C@@H](C(=O)N[C@@H](CCCCN)C(=O)N[C@@H](Cc2ccc(O)cc2)C(=O)N[C@H](C(=O)N[C@@H](Cc2ccccc2)C(N)=O)C(C)C)NC(=O)[C@H](Cc2c[nH]c4ccccc24)NC(=O)[C@H](CCC(=O)O)NC(=O)[C@H](Cc2c[nH]cn2)NC(=O)[C@H]([C@@H](C)O)NC(=O)[C@H](CCCNC(=N)N)NC(=O)[C@H](CO)NC3=O)NC(=O)[C@H](CCCCN)NC(=O)[C@H](CC(=O)O)NC(=O)[C@H](CC(N)=O)NC(=O)[C@H](CC(=O)O)NC(=O)[C@@H]2CCCN2C1=O [SEQ ID NO: 153, [Glu28]GpTx-1(1-34)] (H-DCLGFMRKCIPDNDKCCRPNLVCSRTHEWCKYVF-NH2; disulfide 2-17, 9-23, 16-30)",pIC50,"Table 23, IonWorks Quattro, use, […]",6.47
"CC[C@H](C)[C@@H]1NC(=O)[C@@H]2CSSC[C@@H]3NC(=O)[C@H](C(C)C)NC(=O)[C@H](CC(C)C)NC(=O)[C@H](CC(N)=O)NC(=O)[C@@H]4CCCN4C(=O)[C@H](CCCNC(=N)N)NC(=O)[C@H](CSSC[C@H](NC(=O)[C@@H](N)CC(=O)O)C(=O)N[C@@H](CCCNC(=N)N)C(=O)NCC(=O)N[C@@H](Cc4ccccc4)C(=O)N[C@@H](CCSC)C(=O)N[C@@H](CCCNC(=N)N)C(=O)N[C@@H](CCCCN)C(=O)N2)NC(=O)[C@H](CSSC[C@@H](C(=O)N[C@@H](CCCCN)C(=O)N[C@@H](Cc2ccc(O)cc2)C(=O)N[C@H](C(=O)N[C@@H](Cc2ccccc2)C(N)=O)C(C)C)NC(=O)[C@H](Cc2c[nH]c4ccccc24)NC(=O)[C@H](CCCCN)NC(=O)[C@H](Cc2c[nH]cn2)NC(=O)[C@H]([C@@H](C)O)NC(=O)[C@H](CCCNC(=N)N)NC(=O)[C@H](CO)NC3=O)NC(=O)[C@H](CCCCN)NC(=O)[C@H](CC(=O)O)NC(=O)[C@H](CC(N)=O)NC(=O)[C@H](CC(=O)O)NC(=O)[C@@H]2CCCN2C1=O [SEQ ID NO: 155] (H-DCRGFMRKCIPDNDKCCRPNLVCSRTHKWCKYVF-NH2; disulfide 2-17, 9-23, 16-30)",pIC50,,7.52

# From patent publication US9340590B2 (priority 2011, dated 2016)
